Columns and labels:
[1] = In vitro release rate from vaginal rings; format: physicochemical; settings: for in vitro release rate: vaginal ring, 20% load W/W, redistilled water, 37 C
Procedure: Thread was used to suspend the rings prepared in example 1 individually in 500 mL wide mouth polyethylene bottles with screw caps. 400 mL of redistilled water was added, and the bottles were placed in a shaking water bath at 37 C. The bath was set to make 100 one-inch strokes per minute. The bathing solution was changed every 24 hours. The CDB-2914 concentration in the aqueous medium was measured via HPLC to determine the release rate of CDB-2914.
Using the same in vitro release rate analysis, vaginal rings were prepared containing either CDB-2914 (20% load, W/W) or mifepristone (20% load, W/W) with several different diameters of silicone tubes, and with tubes containing 18% ethylene vinyl acetate (EVA) as a rate-limiting layer. The rings were prepared by mixing CDB-2914 in a silicone elastomer matrix that was filled into a silicone tube. Upon polymerization, tube was cut into a 16 cm length and the two ends were joined with medical adhesive to form a ring. This vaginal ring has an inner layer of silicone rubber and active agent, and an outer, rate limiting layer. With a silicone tube containing 18% EVA, CDB-2914 was released at the rate of about 96 μg/ring/day, whereas the release of mifepristone was negligible. Using silicone tube C, CDB-2914 was diffused out at more than a 3-fold higher rate than mifepristone (160 μg/ring/day vs. 48 μg/ring/day).

[2] = Pharmacokinetic study of vaginal rings in women (serum levels by radioimmunoassay and LC/MS); format: in vivo
Procedure: A pharmacokinetic study was conducted abroad in two clinics. Radioimmunoassay and liquid chromatography/mass spectroscopic method (LC/MS) were used to measure the serum levels of CDB-2914 and its immunoreactive metabolites. […] After insertion of the ring into the subjects, CDB-2914 was absorbed into the blood stream, increased continuously and reached a plateau at approximately 7 days post-insertion (2-3 ng/mL). Serum levels decreased upon removal of ring at Day 29 (See FIGS. 5A and 5B).

Water solubility = format: physicochemical
[3] = silicone tube containing 18% EVA as rate-limiting layer

SMILES | release rate relative to mifepristone ([1]; silicone tube C) | in vitro release rate ([1]; silicone tube C) | in vitro release rate [1, 3] | serum levels upon removal of ring ([2]; ring removed at Day 29) | bursting release immediately after insertion of the rings ([2]; vaginal ring) | serum concentration compared to Nestorone (NES) ([2]; vaginal ring) | time to reach serum plateau ([2]; vaginal ring) | serum level at plateau ([2]; vaginal ring, plateau at approximately 7 days post-insertion) | water solubility (Water solubility)
CC(=O)O[C@]1(C(C)=O)CC[C@H]2[C@@H]3CCC4=CC(=O)CCC4=C3[C@@H](c3ccc(N(C)C)cc3)C[C@@]21C [CDB-2914, 17α-acetoxy-11β-(4-N,N-dimethylaminophenyl)-19-norpregna-4,9-diene-3,20-dione] | > 3 fold | 160 μg/ring/day | about 96 μg/ring/day | decreased | No bursting release | higher than that of Nestorone | approximately 7 days post-insertion | 2 to 3 ng/mL | not water soluble
CC#C[C@]1(O)CC[C@H]2[C@@H]3CCC4=CC(=O)CCC4=C3[C@@H](c3ccc(N(C)C)cc3)C[C@@]21C [mifepristone, reference compound] |  | 48 μg/ring/day | negligible |  |  |  |  |  | 

— US8865200B2, “Sustained release compositions containing progesterone receptor modulators” (Laboratoire HRA Pharma, priority 2004, dated 2014)
